This note sets out measurements from patent US11491165B2 (Kinoxis Therapeutics Pty Ltd, priority 2016, dated 2022).

The structures appear in SMILES notation. Where only a bound is given, the exact number is not on record here.

Series [1] concerns the target T1, oxytocin receptor (OXTR), hOTR (Homo sapiens, UniProt P30559).
T1 construct: expressed in transfected cells
T1 sequence (P30559 1-389): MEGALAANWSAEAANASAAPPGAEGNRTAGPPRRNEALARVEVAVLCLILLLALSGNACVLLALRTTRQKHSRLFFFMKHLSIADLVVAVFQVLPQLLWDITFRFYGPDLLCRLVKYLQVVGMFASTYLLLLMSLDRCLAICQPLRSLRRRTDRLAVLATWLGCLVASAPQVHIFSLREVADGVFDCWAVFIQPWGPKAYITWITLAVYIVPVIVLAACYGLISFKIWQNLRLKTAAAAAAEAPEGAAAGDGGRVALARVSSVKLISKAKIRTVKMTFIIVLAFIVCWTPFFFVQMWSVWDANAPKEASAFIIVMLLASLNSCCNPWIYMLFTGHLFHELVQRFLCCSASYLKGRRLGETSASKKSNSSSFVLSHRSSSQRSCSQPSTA
In words: IP1 accumulation assay, OTR-expressing HEK-293 cells (agonist and antagonist assessment). To be noted: for Emax: HEK293, read-out: OXTR Emax (% OXT); for EC50: IP1, 1 h; for OV function: ratio of OXTR functional potency to V1aR functional potency, 'OT only' = function at OXTR only. The format is cell-based. The method, then:
(§1) Human embryonic kidney cells (HEK-293) transfected to stably express untagged hOTR and V1aR using the Flp-In™ T-REx™ system (Life Technologies, Carlsbad, Calif. USA) were established as reported in Jorgensen et al., 2016 (the entire disclosure of which is hereby incorporated by reference). Cells were subsequently maintained in 10% DMEM containing hygromycin (80 μg/ml), penicillin (100 U/ml), streptomycin (0.1 mg/ml) and blasticidine S hydrochloride (15 μg/ml).
(§2) OTR or V1aR-expressing HEK-293 cells were seeded onto poly-L-lysine (100 μg/ml)-coated 384-well plates at a density of 8.75×10^3 cells per well. Cells were incubated in tetracycline (2 μg/mL) for 48 h to induce receptor expression. Intracellular IP1 levels induced by activation of the Gq protein coupled to the OTR and V1aR was indexed using the HTRF IP-One kit (CisBio International, Bedford, Mass., USA), according to manufacturer's protocol. For agonist assessment, cells were incubated with logarithmically-spaced concentrations of compounds (1 nM-100 μM) for 1 h prior to the addition of Ab-Cryptate and IP1-d2 for 1 h. The contents of each well were transferred to a white-walled proxy plate (Perkin Elmer) and fluorescence read using a Pherastar Microplate reader (BMG Labtech, Cary, N.C., USA). For antagonist assessment, cells were incubated an ˜EC70 concentration of OT (30 nM) or AVP (25 nM) mixed with compounds (1 nM-100 μM) or vehicle control for 1 h. IP1 levels in the presence of compounds and OT or AVP were expressed as a percentage of levels seen with OT or AVP in the presence of vehicle control. Concentration response curves for OT and AVP were determined after 5 min incubation in drug or vehicle, and the data fitted using GraphPad PRISM to a 4-parameter logistic equation of the form y=Min+(Max−Min)/(1+10^((logEC50−X)*n)) where X is drug concentration and n is the H-ill slope. Data represent the mean±s.d. of at least 3 independent experiments, each in duplicate.

Series [2] deals with T2, vasopressin 1a receptor (V1aR) (Homo sapiens, UniProt P37288).
T2 construct: expressed in transfected cells
T2 sequence (P37288 whole entry): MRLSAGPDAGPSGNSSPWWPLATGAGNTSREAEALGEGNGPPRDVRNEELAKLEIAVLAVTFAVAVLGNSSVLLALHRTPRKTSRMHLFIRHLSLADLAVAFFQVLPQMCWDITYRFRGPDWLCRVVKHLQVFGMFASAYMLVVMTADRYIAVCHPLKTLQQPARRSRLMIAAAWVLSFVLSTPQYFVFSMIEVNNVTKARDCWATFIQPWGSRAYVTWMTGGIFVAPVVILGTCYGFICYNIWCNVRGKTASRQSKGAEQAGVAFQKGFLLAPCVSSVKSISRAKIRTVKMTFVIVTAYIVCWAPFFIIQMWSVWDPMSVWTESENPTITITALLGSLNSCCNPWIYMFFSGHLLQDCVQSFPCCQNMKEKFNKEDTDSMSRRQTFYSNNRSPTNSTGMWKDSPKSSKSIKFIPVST
In words: IP1 accumulation assay, V1aR-expressing HEK-293 cells (agonist and antagonist assessment). To be noted: for EC50: agonist assessment, IP1, 1 h; for IC50: antagonist assessment vs AVP 25 nM (~EC70), IP1. It counts as cell-based. The method, then:
Cells were subsequently maintained in 10% DMEM containing hygromycin (80 μg/ml), penicillin (100 U/ml), streptomycin (0.1 mg/ml) and blasticidine S hydrochloride (15 μg/ml).
as §2, with “Cells” for “OTR or V1aR-expressing HEK-293 cells were seeded onto poly-L-lysine (100 μg/ml)-coated 384-well plates at a density of 8.75×10^3 cells per well. Cells”, “For antagonist assessment, cells were incubated an ˜EC70 concentration of OT (30 nM) or AVP (25 nM) mixed with compounds (1 nM-100 μM) or vehicle control for 1 h.” left out

For series [3], the target named is T1, oxytocin receptor (OXTR), hOTR. The series can be described thus: Competition radioligand binding, [3H]-oxytocin, OTR-expressing HEK293 membranes. To be noted: [3H]-oxytocin 10 nM, 90 min 4 °C. As for the experimental part: as §1
(§3) To induce receptor expression, cells were incubated with tetracycline (2 μg/mL) for 48 h. PBS with 5 mM EDTA (pH 7.4) was used to detach OTR and V1aR-expressing HEK293 cells from culture flasks. Harvested cells were centrifuged at 1200 g for 5 min and were resuspended in homogenization buffer (50 mM HEPES, 5 mM EDTA, 5 mM MgCl2; pH 7.4) prior to homogenization using an Ultra-Turrax homogeniser (IKA, Wilmington, N.C., USA). Homogenates were centrifuged three times for 30 min at 48.000 g, 4° C. for 30 min and membrane pellets resuspended in 50 mM Tris HCl, 5 mM MgCl2 (pH 7.4). A bicinchoninic acid assay was used according to the manufacturer's protocol (Bio-Rad, Hercules. Calif., USA) to measure final protein concentration. Membranes were stored at −80° C. until use in competition radioligand binding studies.
(§4) Reactions were incubated for 90 min at 4° C. to reach equilibrium, and terminated by rapid filtration over glass fibre filters (Whatman GF/A […]; Millipore, Darmstadt, Germany), and washing with ice-cold reaction buffer. Filters were dried, then incubated with Microscint 0 (Perkin Elmer) for 30 min before radioactivity was detected with a Microbeta2 2450 microplate-reader (Perkin Elmer). […] Specific binding in the presence of compounds was expressed as a percentage of specific binding in the presence of vehicle control. A sum-of-squares F-test was used to compare the goodness of fit of one-site, two-site and sigmoidal with variable hill slope binding models, and to calculate Ki's using Graphpad Prism (Graphpad Software, La Jolla, Calif., USA).

For series [4], the target named is T2, vasopressin 1a receptor (V1aR). In words: Competition radioligand binding, [3H]-vasopressin, V1aR-expressing HEK293 membranes. The note with it: [3H]-vasopressin 2 nM, 90 min 4 °C. As for the experimental part:
as §1, §3, §4

In general, melting point refers to the temperature, or range, at which the solid turns liquid. As to `COC(=O)C12CCC(C(=O)N3Cc4cnn(C)c4Nc4ccccc43)(CC1)CC2` [BcO-MC, methyl 4-(1-methyl-1,4,5,10-tetrahydrobenzo[b]pyrazolo[3,4-e][1,4]diazepine-5-carbonyl)bicyclo[2.2.2]octane-1-carboxylate], the melting point lay in the range of 198 to 211 °C.
As usually defined, the Emax is the size of the effect at its maximum, as opposed to the concentration needed. Broadly, the EC50 is the concentration at which the effect is half-maximal. Low readings indicate an effect from little substance, high ones a need for much substance. The term IC50 denotes the concentration that inhibits the measured activity by half. A higher IC50 goes with lower potency. As a reminder, the Ki is a dissociation constant, usually derived from enzyme kinetics or from competition with a known ligand. High values mean a looser hold on the target, low ones a stronger hold on the target. Consider `Cn1ncc2c1Nc1ccccc1N(C(=O)C1CCCCC1)C2` [CA6 (KA), cyclohexyl(1-methyl-4,10-dihydrobenzo[b]pyrazolo[3,4-e][1,4]diazepin-5 (1H)-yl)methanone], for which, in series [1], the Emax stood at 17% and the OV function is listed as less than 0.04. In series [1] (agonist assessment), this compound had a 50% effective concentration (EC50) of 481 ± 61 nM. In series [2], this compound had an EC50 greater than 10000 nM and an IC50 greater than 10000 nM. This compound yielded a Ki in series [3] of 1080 ± 323 nM. Also, the inhibitory constant (Ki) in series [4] was 236 ± 75 nM.
For the compound `Cn1ncc2c1Nc1ccccc1N(C(=O)c1cc(OCc3ccccc3)cc(OCc3ccccc3)c1)C2` [Example 9, (3,5-Bis(benzyloxy)phenyl)(1-methyl-4,10-dihydrobenzo[b]pyrazolo[3,4-e][1,4]diazepin-5 (1H)-yl)methanone], the melting point is 221 to 224 °C.
On the same count and under the same terms, to `Cn1ncc2c1Nc1ccccc1N(C(=O)C13C4C5C6C4C1C6C53)C2` (stereo not drawn) [QB] belongs 194 to 203 °C; to `Cn1ncc2c1Nc1ccccc1N(C(=O)c1ccc(O)cc1)C2` [TAR-B049, (4-hydroxyphenyl)(1-methyl-4,10-dihydrobenzo[b]pyrazolo[3,4-e][1,4]diazepin-5 (1H)-yl)methanone], greater than 300 °C.
Compound `CCCCCCOc1ccc(C(=O)N2Cc3cnn(C)c3Nc3ccccc32)cc1` [TAR-B085, (4-(hexyloxy)phenyl)(1-methyl-4,10-dihydrobenzo[b]pyrazolo[3,4-e][1,4]diazepin-5 (1H)-yl)methanone] yielded a melting point of 204 to 206 °C.
The compound `CC1CCC(C(=O)N2Cc3cnn(C)c3Nc3ccccc32)CC1` (stereo not drawn) [TAR-C41, (1-methyl-4,10-dihydrobenzo[b]pyrazolo[3,4-e][1,4]diazepin-5 (1H)-yl)(4-methylcyclohexyl)methanone] registered a melting point of 234 to 239 °C.
On the same count and under the same terms, for `Cn1ncc2c1Nc1ccccc1N(C(=O)c1ccc(C(=O)O)cc1)C2` [TAR-C077, 4-(1-methyl-1,4,5,10-tetrahydrobenzo[b]pyrazolo[3,4-e][1,4]diazepine-5-carbonyl)benzoic acid] the value was greater than 300 °C.
As to `Cn1ncc2c1Nc1ccccc1N(C(=O)c1ccc3c(c1)OCO3)C2` [TRGA95, benzo[d][1,3]dioxol-5-yl(1-methyl-4,10-dihydrobenzo[b]pyrazolo[3,4-e][1,4]diazepin-5 (1H)-yl)methanone], in series [1], the Emax was 13% and the OV function is 0.06. This compound gave an EC50 in series [1] (agonist assessment) of 91 ± 25 nM. In series [2], this compound came in with a half-maximal effective concentration (EC50) greater than 10000 nM and an IC50 of 1530 ± 444 nM. For the same compound, in series [3], the inhibition constant Ki was determined as 159 ± 32 nM. The compound also displayed a Ki in series [4] of 18 ± 1 nM.
The compound `Cn1ncc2c1Nc1ccccc1N(C(=O)c1ccc3ccccc3c1)C2` [TRGA-81, (1-methyl-4,10-dihydrobenzo[b]pyrazolo[3,4-e][1,4]diazepin-5 (1H)-yl)(naphthalen-2-yl)methanone] showed a melting point of 228 to 243 °C.
Still for that read-out and setting: to `Cn1ncc2c1Nc1ccccc1N(C(=O)c1cccc3ccccc13)C2` [TRGA-89, (1-methyl-4,10-dihydrobenzo[b]pyrazolo[3,4-e][1,4]diazepin-5 (1H)-yl)(naphthalen-1-YI)methanone] belongs 231 to 233 °C.
On to `Cc1cc(C(=O)N2Cc3cnn(C)c3Nc3ccccc32)ccc1CNC(=O)N1CCN(Cc2cc(O)cc(O)c2)CC1` [WAY, reference compound], for which, in series [1], the maximum response (Emax) was determined as 45% and the OV function was 0.69.
With `COc1ccccc1C(=O)N1Cc2cnn(C)c2Nc2ccccc21` [WJ0659, (2-Methoxyphenyl)(1-methyl-4,10-dihydrobenzo[b]pyrazolo[3,4-e][1,4]diazepin-5 (1H)-yl)methanone], the melting point was 281 to 282 °C (dec.).
Same read-out and setting: to `Cn1ncc2c1Nc1ccccc1N(C(=O)c1ccc(Br)cc1)C2` [WJ0820, (4-Bromophenyl)(1-methyl-4,10-dihydrobenzo[b]pyrazolo[3,4-e][1,4]diazepin-5 (1H)-yl)methanone] belongs 249 to 251 °C.
For `Cn1ncc2c1Nc1ccccc1N(C(=O)c1cccc(Br)c1)C2` [WJ0821, (3-Bromophenyl)(1-methyl-4,10-dihydrobenzo[b]pyrazolo[3,4-e][1,4]diazepin-5 (1H)-yl)methanone], the melting point lay within 218 to 220 °C.
Still for that read-out and setting: to `Cn1ncc2c1Nc1ccccc1N(C(=O)c1ccccc1Br)C2` [WJ0822, (2-Bromophenyl)(1-methyl-4,10-dihydrobenzo[b]pyrazolo[3,4-e][1,4]diazepin-5 (1H)-yl)methanone] belongs 244 to 246 °C.
In turn, `Cc1cccc(C(=O)N2Cc3cnn(C)c3Nc3ccccc32)c1` [WJ0823, (1-Methyl-4,10-dihydrobenzo[b]pyrazolo[3,4-e][1,4]diazepin-5 (1H)-yl)(m-tolyl)methanone] came in with a melting point of 254 to 256 °C. Also, the Emax in series [1] turned out to be 16.8%. Moreover, the “EC50 (OXTR agonist potency, mean ± s.d.)” value in series [1] (agonist assessment, IP1) is 420 ± 37 nM. Further, in series [1] (agonist assessment), the EC50 came to 407 ± 102 nM. Moreover, in series [2], the concentration giving a half-maximal response (EC50) was greater than 10000 nM and the IC50 is greater than 10000 nM. In series [3], this compound yielded a Ki of 553 ± 155 nM.
